Read-outs that look alike come from different tables or passages of the source.
Experiment: Study HMI116787: single ascending dose, food effect and RTV boosting, SDD PiB, healthy subjects
Format: in vivo, human
Conditions: for Cmax / Tmax / concentration at 24 h / AUC / half-life: human, plasma, oral; for Cmax / Tmax / concentration at 24 h / AUC / half-life / CL/F: fasted; for Cmax / AUC / half-life / CL/F: geometric mean (95% CI); for Tmax / concentration at 24 h: median (range); for concentration at 24 h: read-out: C24; for AUC: read-out: AUC(0‐∞); for half-life: read-out: t½ (converted)
Method: This study was a first‐in‐human, double‐blind, randomized, placebo‐controlled, single dose escalation study of GSK2838232 in healthy subjects conducted in two sequential cohorts with four dosing visits in each cohort. At each visit in each cohort, 6 out of the 8 subjects were randomized to receive the active dose, and 2 out of the 8 subjects were randomized to placebo. Cohort 1 tested escalating doses of 5, 10, and 20 mg GSK2838232 as a Spray Dried Dispersion (SDD) delivered as a powder‐in‐bottle (PiB) suspension; Cohort 2 tested the same formulation at doses of 50 and 100 mg, the effect of a high‐fat breakfast on a 50 mg dose, and the impact of steady‐state dosing of 100 mg once‐daily (QD) RTV on the PK of a single 10 mg dose of GSK2838232 (administered on Day 10 of the 12 days of RTV dosing). All doses were administered in a fasted state, except in the food effect portion of the study.
Blood samples were taken via an indwelling cannula or by direct venipuncture, collected into a di‐potassium ethylenediaminetetraacetic acid (K2 EDTA) tube, and placed on wet ice. Samples were centrifuged at approximately 1500g for 10 minutes at approximately 4°C. Exactly 500 μL of the resulting plasma was transferred into labeled 1.4 mL Matrix TrakMate Tubes containing exactly 500 μL of 50 mmol/L citrate buffer, pH 4.0, and mixed well. When 500 μL of plasma was not able to be transferred, the ratio of plasma to citrate buffer was kept at 1:1. Buffered plasma samples were kept on ice and frozen at −70°C within 1 hour of collection. Plasma samples were analyzed for GSK2838232 using a validated analytical method based on protein precipitation, followed by high performance liquid chromatography with tandem mass spectrometry (HPLC/MS/MS) analysis.
Extracts were analyzed using HPLC (Shimadzu, Nexera, 30 series) and tandem mass spectrometry detection (HPLC‐MS/MS). The mass spectrometer used was an API‐5500 using IonSpray interface (500 V) in positive mode monitoring. The mass transitions were 809.5 to 255.1 and 816.5 to 262.1 for GSK2838232 and [2H7] GSK2838232 (the isotopically labeled internal standard), respectively. The chromatographic conditions utilized a Waters Acquity UPLC BEH C18 column (50 × 2.1 mm, 1.7 μm) with mobile phases consisting of 1 mmol/L ammonium formate:formic acid (100:0.005) (mobile phase A) and acetonitrile:formic acid (100:0.1) (mobile phase B) at a flow rate of 0.6 mL/min, with pump B at 63% held for 2 minutes. The assay was validated to have precision (%RSD) of 0.7%‐6.5% (within‐run) and 1.0%‐5.9% RSD (between‐run) and with accuracy (%bias) of 0.0%‐1.6%. […] The lower limit of quantification (LLQ) was 0.5 ng/mL, using a 50 μL aliquot of K2EDTA acidified plasma. The higher limit of quantification (HLQ) was 500 ng/mL.
The PK parameters were calculated by standard noncompartmental analysis based on actual sampling times using WinNonlin Version 6.3 or higher. Estimation of AUC used the linear up/log down trapezoidal rule.

[1] = 50 mg Fed (high, 60% fat meal) versus 50 mg fasted, SDD PiB formulation, Study HMI116787
[2] = RTV for 10 days prior to 10 mg SDD, Study 116787
[3] = single 5 mg SDD PiB, without ritonavir, Study HMI116787
[4] = single 10 mg SDD PiB, with ritonavir 100 mg QD (Day 10 of 12), Study HMI116787
[5] = single 10 mg SDD PiB, without ritonavir, Study HMI116787
[6] = single 20 mg SDD PiB, without ritonavir, Study HMI116787
[7] = single 50 mg SDD PiB, without ritonavir, Study HMI116787
[8] = single 100 mg SDD PiB, without ritonavir, Study HMI116787

CC(C)C1=C2[C@H]3CC[C@@H]4[C@@]5(C)CC[C@H](OC(=O)CC(C)(C)C(=O)O)C(C)(C)[C@@H]5CC[C@@]4(C)[C@]3(C)CC[C@@]2([C@@H](O)CN(CCN(C)C)Cc2ccc(Cl)cc2)CC1=O [GSK2838232]
Geometric least square mean ratio [90% CI], AUC(0‐∞) [1]: 1.61 (1.266, 2.053) | Geometric least square mean ratio [90% CI], C max [1]: 1.60 (0.995, 2.566) | change in t½ with RTV [2]: approximately doubled | increase in 24‐h concentration (C24) with RTV [2]: ~6.4 fold | increase in AUC(0‐t) with RTV [2]: approximately 10 fold | increase in C max with RTV [2]: ~3 fold | bioavailability after meal relative to the fasted state (SDD PiB formulation, high‐fat (60%) meal, Study HMI116787): approximately 1.6 fold | Cmax [3]: 1.52 ng/mL | Tmax [3]: 2.24 h | concentration at 24 h [3]: 0 ng/mL | Cmax [4]: 9.1 ng/mL | AUC [4]: 389 ng·h/mL | half-life [4]: 33.7 h | Tmax [4]: 4 h | concentration at 24 h [4]: 4.64 ng/mL | Cmax [5]: 3.49 ng/mL | Tmax [5]: 1.76 h | concentration at 24 h [5]: 0.63 ng/mL | Cmax [6]: 8.09 ng/mL | AUC [6]: 104 ng·h/mL | half-life [6]: 14.1 h | Tmax [6]: 1.75 h | concentration at 24 h [6]: 1.54 ng/mL | Cmax [7]: 13.1 ng/mL | AUC [7]: 195 ng·h/mL | half-life [7]: 17.4 h | Tmax [7]: 2.02 h | concentration at 24 h [7]: 3.11 ng/mL | Cmax [8]: 23.7 ng/mL | AUC [8]: 385 ng·h/mL | half-life [8]: 18.8 h | Tmax [8]: 2.75 h | concentration at 24 h [8]: 5.93 ng/mL | CL/F [4]: 25.7 (18.8, 35.1) L/h | CL/F [6]: 193 (147, 254) L/h | CL/F [7]: 256 (203, 324) L/h | CL/F [8]: 260 (202, 335) L/h | increase in C max by RTV (single dose after steady‐state predosing with RTV 100 mg QD): 3 fold

Source: paper PMC5989765, “The safety, tolerability, and pharmacokinetic profile of GSK2838232, a novel 2nd generation HIV maturation inhibitor, as assessed in healthy subjects” (Pharmacology Research & Perspectives, 2018)
